Laboratory results reported in patent US10450317B2, “Notch pathway signaling inhibitor compounds” (Eli Lilly and Company, priority 2015, dated 2019).

Assays:
[1] = test system: outer hair cells in organ of Corti explants; test: Organ of Corti explant assay, immuno-staining and count of outer hair cells; format: cell-based, mice; settings: explants cultured four days at 1 μM; relative to negative control-treated samples
Method: (§1) The bulla and surrounding tissue from the petrous portion of the temporal bone are removed from 1 to 4 day-old postnatal mice (transgenic strain: Atoh1-driven nGFP; Lumpkin E A, et al., Gene Expr Patterns, 2003, (36):389-95) of both sexes. Organs of Corti are dissected in Hanks solution, the spiral ligament is removed and the explants are placed on cover slips coated with poly-L-ornithine (0.01%, Sigma) and laminin ([…], Becton Dickinson) to obtain a preparation with a flat cochlear surface. Each cochlear explant is then placed in a single well of a 24 well plate (Falcon) and cultured in DMEM (Invitrogen) with 5% fetal bovine serum, 5% horse serum, and penicillin-streptomycin (LifeTechnologies). Experimental compounds are added with medium on Day 0 and replaced every 2-3 days. All cultures are maintained in a 5% CO2 humidified incubator at 37° C.
Following the explant culture, tissues are fixed in the 24 well plate with 200 μl Cytofix/Cytoperm (BD) for 30 min, rinsed with PBS containing TritonX100 (PBST), and stained with 200 μl of primary antibody solution, consisting of 4% normal donkey serum in PBST with goat anti-GFP (1:2500; AbCAM, ab5450) and rabbit anti-myosinVIIa (1:1000; Proteus Bioscience #25-6790) for 1 hour. […] Blinded cell counts are measured in five separate experiments. […]

[2] = test system: hair cell generation markers Atoh1, Pou4f3, Myo7a in organ of Corti explants; test: Organ of Corti explant assay, hair cell marker gene expression by qRT-PCR; format: cell-based, mice; settings: 1 μM, fold-induction relative to negative control, ± SEM
Method: Generally, organ of Corti organotypic explant culture is carried out on Day 0 according to the method described in Parker et al., Journal of Visualized Experiments, 2010, (36), e1685. Explant culture is carried out for 4-7 days at which point the culture is either prepared for cellular lysis for qRT-PCR, or tissue fixation for immunohistochemistry.
as §1
RNA Extraction is carried out by lysing the explant tissue with 350 μl RLT Plus buffer (Qiagen) per well, and total RNA is purified by RNeasy® Plus Mini Kit (Qiagen). cDNA synthesis is carried out with the SuperScript® III First-Strand Synthesis System (LifeTechnologies) using random hexamers. To quantify the induction of hair cell marker expression, qPCR is performed with TaqMan Gene Expression Master Mix (LifeTechnologies, 4369016) and probes to detect genes of interest (e.g. […]; Assay ID Mm00476035_s1, Pou4f3; Assay ID Mm04213795_s1 and Myo7a; Assay ID Mm01274015_m1, LifeTechnologies) and an endogenous control gene, Tbp (Assay ID Mm00446971_m1, LifeTechnologies). Relative gene expression between treatment groups is analyzed using the ΔΔCT method and replicate measurements are averaged. Experiments are carried out in triplicate, at a minimum, and reported as a grand mean.
Data (±SEM) represent the fold-induction in gene expression relative to negative control-treated samples.

hAtoh1 = test: Induction of hAtoh1 expression in human tumor cell line LS174T (qPCR); format: cell-based; settings: LS174T cells, 72 hours, read-out: IC50 (relative expression of hAtoh1)
Method: To evaluate potency of Compounds 1, Isomer 2 and 2, Isomer 2 in their ability to induce hAtoh1 expression, a human tumor cell line is utilized. Endogenous Notch signaling regulation for this cell line is similar to that in the inner ear. Generally, this assay is carried out following principles in Kazanjian et al., Gastroenterology, 2010, 139(3): 918-928 and Supplementary Materials and Methods.
Generally, standard cell culture techniques are used. Low passage human colorectal adenocarcinoma cell line LS174T (ATCC CL-188) maintained in Growth Medium (MEM 10% FBS) is plated 10,000 cells in 100 μl Assay Medium (MEM 1% FBS) per well into 96-well tissue culture treated plates. […]
To quantify the expression of hair cell markers from the […], qPCR probes to detect hAtoh1 or TBP expression in a single two-color multiplex reaction is carried out. […] Relative gene expression between treatment groups is analyzed using the ΔΔCT method and replicate measurements are averaged.
Four separate assays are carried out to obtain IC50 values for each test compound. The IC50 value is determined by fitting concentration response data to “log(antagonist) vs. response (three parameter)” model using GraphPad Prism® software for 12 doses across a concentration range of 4.0E-11 to 1.0E-6 M with 108 total points analyzed for each compound.

Compound | Percent Increase in hair cells [1] [%] | RQ of Atoh1 expression [2] | RQ of Myo7a expression [2] | RQ of Pou4f3 expression [2] | IC50 (hAtoh1) [nM]
COc1ccc2c(c1)N1CCC(C)(C)C1=CC(=O)C2NC(=O)[C@H](C)NC(=O)CCC(F)(F)F (single isomer, unassigned) [Compound 1, Isomer 2] | 14.15 ± 1.9 | 3.72 ± 0.54 | 1.73 ± 0.33 | 2.04 ± 0.35 | 16.6
C[C@H](NC(=O)CCC(F)(F)F)C(=O)NC1C(=O)C=C2N(CCC2(C)C)c2ncccc21 (single isomer, unassigned) [Compound 2, Isomer 2] | 17.26 ± 1.2 | 3.10 ± 0.69 | 1.49 ± 0.22 | 1.65 ± 0.25 | 54.3
